The values below come from ChEMBL document CHEMBL4043225, “Identification of potent, nonabsorbable agonists of the calcium-sensing receptor for GI-specific administration” (Bioorg Med Chem Lett, 2017).

One data set concerns Rattus norvegicus. The data set is described as follows: Unbound Cmax in CD rat portal vein at 10 mg/kg, po administered via gavage. It is filed as ADME, organism-based. The note with it: in vivo.
A short description of data set [1]: Protein binding in CD rat plasma at 10 mg/kg, administered via gavage. It counts as ADME, organism-based. To be noted: po, read-out: PPB (converted).
Data set [2] in a line: AUC in CD rat systemic circulation at 10 mg/kg, po administered via gavage. It is filed as ADME, organism-based.
Data set [3] is described as follows: Aqueous solubility of the compound in FESSIF. It counts as physicochemical.
The target of data set [4] is T1, Extracellular calcium-sensing receptor (Rattus norvegicus, UniProt P48442).
T1 sequence (P48442 whole entry): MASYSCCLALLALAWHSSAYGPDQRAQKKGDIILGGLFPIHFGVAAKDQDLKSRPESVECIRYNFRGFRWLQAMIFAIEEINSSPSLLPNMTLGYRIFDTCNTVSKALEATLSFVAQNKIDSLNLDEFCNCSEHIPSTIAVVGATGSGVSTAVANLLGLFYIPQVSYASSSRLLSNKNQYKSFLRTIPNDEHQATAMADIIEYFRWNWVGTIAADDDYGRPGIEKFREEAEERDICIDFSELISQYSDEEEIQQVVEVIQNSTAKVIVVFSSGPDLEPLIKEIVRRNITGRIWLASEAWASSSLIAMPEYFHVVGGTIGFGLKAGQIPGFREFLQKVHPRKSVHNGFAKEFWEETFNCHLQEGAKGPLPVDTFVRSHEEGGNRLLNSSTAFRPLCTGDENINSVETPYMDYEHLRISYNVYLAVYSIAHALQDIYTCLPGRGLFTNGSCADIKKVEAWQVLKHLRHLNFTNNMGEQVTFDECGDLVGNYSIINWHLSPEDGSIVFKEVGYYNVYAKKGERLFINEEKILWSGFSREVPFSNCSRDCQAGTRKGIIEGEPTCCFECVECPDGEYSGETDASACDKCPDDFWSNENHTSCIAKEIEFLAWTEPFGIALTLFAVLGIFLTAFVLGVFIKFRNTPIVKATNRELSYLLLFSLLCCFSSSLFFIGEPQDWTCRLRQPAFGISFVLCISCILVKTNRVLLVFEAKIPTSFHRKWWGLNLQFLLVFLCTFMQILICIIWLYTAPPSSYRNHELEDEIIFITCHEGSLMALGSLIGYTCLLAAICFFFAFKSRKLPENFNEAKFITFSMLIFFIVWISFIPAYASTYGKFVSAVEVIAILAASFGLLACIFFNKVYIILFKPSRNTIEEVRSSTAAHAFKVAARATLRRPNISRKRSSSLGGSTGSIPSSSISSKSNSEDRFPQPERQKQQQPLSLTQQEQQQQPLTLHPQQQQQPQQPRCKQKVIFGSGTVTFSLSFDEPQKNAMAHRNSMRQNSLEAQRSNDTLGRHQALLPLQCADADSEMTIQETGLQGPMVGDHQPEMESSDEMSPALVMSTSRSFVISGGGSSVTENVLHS
The experiment in a line: (§1) Agonist activity at rat CaSR expressed in HEK293 cells assessed as increase in intracellular calcium mobilization by fluo-4AM dye based FLIPR assay. It is filed as functional, cell-based. A general note: A change in cytosolic calcium serves as a functional read-out for many receptors and channels.

Data set [5] concerns the target T2, Extracellular calcium-sensing receptor (Rattus norvegicus) (UniProt P48442).
T2 sequence (whole entry): T1 sequence (P48442 whole entry)
The description is as §1. It counts as functional, cell-based.

As to `C[C@@H](N[C@H]1CCN(c2ccc(C(=O)NCCCN3CCC(C(=O)O)CC3)cc2)C1)c1cccc2ccccc12`, the fCmax in the data set on Rattus norvegicus came out at 7 nM. For the same compound, the fraction unbound in data set [1] is 0.07. The compound further had an AUC in data set [2] of 266 ng·h/mL. Besides, the solubility in data set [3] was greater than 1000 µg/mL. The EC50 in data set [4] is 316 nM. The %max in data set [5] stood at 66%.

Broadly, the AUC is concentration integrated over time. The solubility is the dissolved amount per volume that the medium holds. High values mean much dissolved substance, low ones little dissolved substance. For orientation: EC50 means the concentration needed to bring the measured effect to its halfway point.
